Laboratory results: US11555031B2, “Compounds and methods for regulating insulin secretion” (The Broad Institute, Inc., priority 2017, dated 2023)

What follows are compounds tested on INS-1E cells (assay: Luciferase Insulin Secretion Assay (proinsulin-Gaussia luciferase reporter)). Details: INS-1E cells; 2.8 mM vs 16.7 mM glucose.
Type: cell-based, rat
Parameters: key to Activity: Active: a compound is identified as active if the compound has a Z-score greater than 3 in the presence of 16.7 mM glucose; Partial activity indicates that the compound does promote insulin secretion (at lower Z-scores); Lost Glucose Dependence: In some cases, insulin secretion was promoted at both measured insulin concentrations
Excerpt: A high-throughput luminescent insulin secretion assay was developed and performed to identify compounds that amplified insulin secretion only in the presence of a permissive glucose environment (FIG. 3). The assay used in compound screening is described in International Patent Publication No. WO2013070796A3, PCT/US2012/063982, and in Burns et al., High-Throughput Luminescent Reporter of Insulin Secretion for Discovering Regulators of Pancreatic Beta-Cell Function. Cell Metab. 2015 Jan. 6; 21(1):126-37.
The assay is a luminescent insulin secretion assay created by inserting Gaussia luciferase within the C-peptide portion of the insulin prohormone. Gaussia luciferase was chosen because of its small size and bright luciferase signal. To ensure full activity of the luciferase, a version was used that was codon-optimized for expression in mammalian cells. The enzyme was flanked with additional cleavage sites for prohormone convertase 2 (PC2), such that no extra amino acids should be present on the ends of the enzyme after processing within the vesicles (FIG. 4). Rat (INS-1E; Merglen et al., 2004) beta-cell lines stably expressing the reporter construct were generated. Assays using this cell type are referred to herein as Luciferase Insulin Secretion Assay.
A search for glucose-dependent insulin secretagogues was conducting by screening 384,216 compounds at a single concentration (10 μM) in duplicate using the Luciferase Insulin Secretion Assay, to identify those that increase insulin secretion only in the presence of high glucose (11.1 mM) (FIG. 6). These assays were performed in 1536 well format. A Z′ factor of 0.35 was obtained with respect the positive control (300 μM IBMX). The cutoff value selected was 45% activation, which was 3-4 standard deviations above background (solid uppermost line; FIG. 6).
For standard secretion assays, INS-1E cells were plated in 96-well format, preincubated for 1 hr in Krebs Ringer Buffer (KRB) with 2.8 mM glucose, and then stimulated for 1 hr in fresh KRB containing varying amounts of glucose and compounds. Insulin or C-peptide concentration was determined using an ELISA (Mercodia), following the manufacturer's protocol. Luciferase activity was determined from the same samples by adding the coelenterazine substrate to the supernatant to a final concentration of 10 μM and reading on a standard plate reader (BioTek).
INS-1E cells were expanded to 80% confluence in their growth medium, washed once in PBS, and preincubated for 1 hr at 37° C. in KRB with 2.8 mM glucose. Cells were then dissociated, spun at 300×g for 2 min, resuspended in fresh KRB without glucose, and filtered through 40 μm mesh (Becton Dickinson). Next, the cells were counted and diluted in KRB to 1×10^6 cells per ml, and glucose was added as required for each experiment. Cells were then seeded in 384-well format, 3×10^4 cells in 30 μl per well, using a Multidrop Combi device (Thermo Scientific). Compounds were pinned into each well using a Vario robot (CyBio) to a final concentration of 30 μM, and the plates were then incubated for 2 hr at 37° C. For assays involving a transfer step, the plates were then centrifuged at 300×g for 2 min, and 20 μl of supernatant was transferred to a new 384-well plate. Coelenterazine substrate was then added to a final concentration of 10 μM, and luciferase activity was determined using a standard plate reader (BioTek).

Row | Structure (SMILES) | glucose-dependent (glucose-stimulated) insulin secretion, luciferase reporter
1 | COc1ccc(CCc2nc3cc(-c4c(C)noc4C)ccc3n2C[C@H](C)N2CCOCC2)cc1Cl [CBP30, reference compound] | neither of the known bromodomain inhibitors (PF1 or CBP30) affect secretion to the extent of Compound 8
2 | Cc1cccc(C)c1NC(=O)c1ccc(OCc2c(C)noc2C)cc1 [Compound 16] | some positive effect on secretion
3 | Cc1ccccc1NC(=O)c1ccc(OCc2c(C)noc2C)cc1 [Compound 17] | some positive effect on secretion

Same assay, conditions: glucose dependence of insulin secretion; Z-score in the presence of 16.7 mM glucose

Row | Structure (SMILES) | Activity
4 | Cc1cccc(-c2cnc(-c3ccc(NCc4c(C)noc4C)cc3)[nH]2)c1C [Compound 27] | Inactive
5 | Cc1cccc(-c2cc(-c3ccc(NCc4c(C)noc4C)cc3)[nH]n2)c1C [Compound 28] | Inactive
6 | Cc1cccc(-c2ncc(-c3ccc(NCc4c(C)noc4C)cc3)[nH]2)c1C [Compound 29] | Inactive
7 | Cc1cccc(-c2nc(C)c(-c3ccc(NCc4c(C)noc4C)cc3)[nH]2)c1C [Compound 30] | Inactive
8 | Cc1cc(NCc2c(C)noc2C)ccc1-c1cnc(-c2cccc(C)c2C)[nH]1 [Compound 31] | Inactive
9 | Cc1cccc(NS(=O)(=O)c2ccc(NCc3c(C)noc3C)cc2)c1C [Compound 32] | Inactive
10 | Cc1cccc(NC(c2ccc(NCc3c(C)noc3C)cc2)C(F)(F)F)c1C (stereo not drawn) [Compound 33] | Inactive
11 | Cc1cccc(-c2nc3cc(NCc4c(C)noc4C)ccc3[nH]2)c1C [Compound 34] | Inactive
12 | Cc1cccc(-c2noc(-c3ccc(NCc4c(C)noc4C)cc3)n2)c1C [Compound 35] | Inactive
13 | Cc1ccc2nc(-c3ccc(NCc4c(C)noc4C)cc3)[nH]c2c1C [Compound 36] | Inactive
14 | Cc1cccc(NC(=O)c2ccc(OCc3c(C)noc3C)cn2)c1C [Compound 45] | Inactive
15 | Cc1cccc(NC(=O)c2ccc(OCc3c(C)noc3C)cc2O)c1C [Compound 46] | Inactive
16 | Cc1cccc(NC(=O)c2ccc(OCc3cnoc3)cc2)c1C [Compound 47, N-(2,3-Dimethyl-phenyl)-4-(isoxazol-4-ylmethoxy)-benzamide] | Inactive
17 | Cc1cccc(NC(=O)c2ccc(OCc3c(C)cnn3C)cc2)c1C [Compound 48] | Inactive
18 | Cc1cccc(NC(=O)c2ccc(OCc3c(C)ccnc3C)cc2)c1C [Compound 50, N-(2,3-Dimethyl-phenyl)-4-(2,4-dimethyl-pyridin-3-ylmethoxy)-benzamide] | Inactive
19 | CC1=CC(=O)Cc2cc(COc3ccc(C(=O)Nc4cccc(C)c4C)cc3)ccc21 [Compound 51] | Partial activity, Lost Glucose Dependence
20 | Cc1cccc(NC(=O)c2ccc(OC(C)c3c(C)noc3C)cc2)c1C (stereo not drawn) [Compound 52] | Inactive
21 | Cc1cccc(NC(=O)c2ccc(OCc3cn(C)nc3C)cc2)c1C [Compound 53] | Inactive
22 | Cc1cccc(NC(=O)c2ccc(OCc3c(C)nn(C)c3C)cc2)c1C [Compound 54] | Inactive
23 | Cc1cccc(NC(=O)c2ccc(/C=C\c3c(C)noc3C)cc2)c1C [Compound 55 (cis)] | Inactive
24 | Cc1cccc(NC(=O)c2ccc(/C=C/c3c(C)noc3C)cc2)c1C [Compound 55] | Partial activity, Lost Glucose Dependence
25 | Cc1cccc(NC(=O)c2ccc(N(C)Cc3c(C)noc3C)cc2)c1C [Compound 56] | Inactive
26 | Cc1cccc(NC(=O)c2ccc(CNc3c(C)noc3C)cc2)c1C [Compound 57, 4-[(3,5-Dimethyl-isoxazol-4-ylamino)-methyl]-N-(2,3-dimethyl-phenyl)-benzamide] | Inactive

Row | Structure (SMILES) | Activity
27 | Cc1cccc(NC(=O)c2ccc(CN(C)c3c(C)noc3C)cc2)c1C [Compound 58, 4-{[(3,5-Dimethyl-isoxazol-4-yl)-methyl-amino]-methyl}-N-(2,3-dimethyl-phenyl)-benzamide] | Inactive
28 | Cc1cccc(NC(=O)c2ccc(OCc3ccnnc3)cc2)c1C [Compound 59, N-(2,3-Dimethyl-phenyl)-4-(pyridazin-4-ylmethoxy)-benzamide] | Inactive
29 | Cc1cccc(NC(=O)c2ccc(OCc3ccncc3)cc2)c1C [Compound 60, N-(2,3-Dimethyl-phenyl)-4-(pyridin-4-ylmethoxy)-benzamide] | Inactive
30 | Cc1cccc(NC(=O)c2ccc(OCc3cccnc3)cc2)c1C [Compound 61, N-(2,3-Dimethyl-phenyl)-4-(pyridin-3-ylmethoxy)-benzamide] | Inactive
31 | Cc1cccc(NC(=O)c2ccc(OCc3ccccn3)cc2)c1C [Compound 62] | Inactive
32 | Cc1cccc(NC(=O)c2ccc(OCc3cccnc3C)cc2)c1C [Compound 63, N-(2,3-Dimethyl-phenyl)-4-(2-methyl-pyridin-3-ylmethoxy)-benzamide] | Inactive
33 | Cc1ccncc1COc1ccc(C(=O)Nc2cccc(C)c2C)cc1 [Compound 64, N-(2,3-Dimethyl-phenyl)-4-(4-methyl-pyridin-3-ylmethoxy)-benzamide] | Inactive
34 | COc1ncccc1COc1ccc(C(=O)Nc2cccc(C)c2C)cc1 [Compound 65, N-(2,3-Dimethyl-phenyl)-4-(2-methoxy-pyridin-3-ylmethoxy)-benzamide] | Inactive
35 | Cc1cccc(NC(=O)c2ccc(OCc3cnccc3Cl)cc2)c1C [Compound 66, 4-(4-Chloro-pyridin-3-ylmethoxy)-N-(2,3-dimethyl-phenyl)-benzamide] | Inactive
36 | Cc1cccc(NC(=O)c2ccc(OCc3cccnc3Cl)cc2)c1C [Compound 67, 4-(2-Chloro-pyridin-3-ylmethoxy)-N-(2,3-dimethyl-phenyl)-benzamide] | Inactive
37 | Cc1noc(C)c1COc1ccc(C(=O)Nc2cccc(Cl)c2Cl)cc1 [Compound 68, N-(2,3-Dichloro-phenyl)-4-(3,5-dimethyl-isoxazol-4-ylmethoxy)-benzamide] | Active
38 | Cc1cccc(NC(=O)c2ccc(OCc3c(C)noc3C)cc2)c1C#N [Compound 69, N-(2-Cyano-3-methyl-phenyl)-4-(3,5-dimethyl-isoxazol-4-ylmethoxy)-benzamide] | Active
39 | Cc1cccc(NC(=O)c2ccc(OCc3c(C)noc3C)cc2)c1CO [Compound 70] | Active
40 | Cc1noc(C)c1COc1ccc(C(=O)Nc2cccc(Cl)c2C)cc1 [Compound 72, N-(3-Chloro-2-methyl-phenyl)-4-(3,5-dimethyl-isoxazol-4-ylmethoxy)-benzamide] | Active
41 | Cc1noc(C)c1COc1ccc(C(=O)Nc2cccc3c2CCCC3)cc1 [Compound 73, 4-(3,5-Dimethyl-isoxazol-4-ylmethoxy)-N-(5,6,7,8-tetrahydro-naphthalen-1-yl)benzamide] | Inactive
42 | Cc1noc(C)c1COc1ccc(C(=O)Nc2cccc3ccccc23)cc1 [Compound 74, 4-(3,5-Dimethyl-isoxazol-4-ylmethoxy)-N-naphthalen-1-yl-benzamide] | Inactive
43 | Cc1cccc(NC(=O)c2ccc(OCc3c(C)noc3C)cc2)c1 [Compound 75] | Inactive
44 | Cc1ccccc1NC(=O)c1ccc(OCc2c(C)noc2C)cc1 [Compound 76] | Inactive
45 | Cc1cccc(C)c1NC(=O)c1ccc(OCc2c(C)noc2C)cc1 [Compound 77] | Inactive
46 | Cc1cccc(NC(=O)c2ccc(OCc3c(C)noc3C)cc2)c1Cl [Compound 78, N-(2-Chloro-3-methyl-phenyl)-4-(3,5-dimethyl-isoxazol-4-ylmethoxy)-benzamide] | Inactive
47 | Cc1noc(C)c1COc1ccc(C(=O)N2CCc3ccccc32)cc1 [Compound 79] | Inactive
48 | Cc1noc(C)c1COc1ccc(C(=O)N2CCCc3ccccc32)cc1 [Compound 80] | Inactive
